In US9655822B2, “Hydrated lamellar phases or liposomes which contain a fatty monoamine or a cationic polymer which promotes intracellular penetration, and a cosmetic or pharmaceutical composition containing same, as well as a method of screening such a substance” (BASF Beauty Care Solutions France S.A.S., priority 2004, dated 2017):

Tests used:
normal human fibroblasts [1] = assay: Cell viability in the screening of functionalising molecules; details: 1% of molecule (25 kDa PEI: 50 μM), 96-well plate
Method: 250 μl of liposomal suspension is added onto cultures of normal human fibroblasts extracted from abdominal plasy and cultivated in a 96-well plate. Each concentration is tested on 6 different wells. The cell viability is evaluated by a test with paranitrophenylphosphate which determines the intracellular alkaline phosphatase activity after three rinses with pH 7.4 phosphate buffer. The percentage of living cells is calculated with respect to a control made without the addition of liposome in the culture well (n=6).
55 molecules are firstly tested in triplicate, in comparison with the 50 μM 25 kDa PEI. The intracellular penetration is quantified after 24 hours of incubation on normal human fibroblasts cultivated in 24-well plates as described in Example 2. The cell viability is estimated in a 96-well plate with 200 μl of liposomal suspension.
The intracellular penetration and the cytotoxicity are evaluated as described in Example 2.

normal human fibroblasts [2] = assay: Screening of molecules which stimulate the intracellular penetration of PFB-F incorporated in a liposome; format: cell-based
Method: These molecules are retained in priority. The preparation of the liposomes with primary fatty monoamines of alkyl chain length of between 3 and 18 carbons and the quantification of the intracellular penetration of the fluorescent label are carried out as described in the preceding Example. […] We have thus studied the intracellular penetration of the PFB-F encapsulated in liposomes in the presence of primary fatty monoamines on the one hand, and with secondary fatty monoamines on the other hand. The preparation of the liposomes with primary or secondary fatty amines and the quantification of the intracellular penetration of the fluorescent markers are carried out as described in Example 8.

[3] = Transcutaneous permeation on human skin; details: 0.5% vitamin E in liposomes with 2% quaternised soya solution vs free or liposome without quaternised agent; HPLC, 5 to 24 hours
Method: The diffusion kinetics were quantified by spectrofluorimetry from 3 to 24 hours. The release was quantified after 24 additional hours. The storage was also evaluated last. The number of samples tested is 5 per condition.
The diffusion kinetics were quantified by high performance liquid chromatography from 5 to 24 hours. The release was quantified after 24 additional hours. The storage was also evaluate last.

[4] = 1% of molecule (25 kDa PEI: 50 μM), 5% soya lecithin, 0.01% PFB-F, 24 hours

Compound	Viability (normal human fibroblasts [1]) [%]	Stimulation factor (normal human fibroblasts [2]; [4])	Stimulation factor (normal human fibroblasts [2]; by number of alkyl chains of the amine (chain length), as in Example 8)	Stimulation factor (normal human fibroblasts [2]; primary monoamine with a single alkyl fatty chain, by number of carbons, as in Example 8)	diffusion, release and storage (in words) [3]
Quaternium 26	59.2	30.9	–	–	–
CCCCN [n-Butylamine C4, n-Butylamine]	–	1.4	1.7	1.4	–
Quaternium 70 and PG	63.9	−0.2	–	–	–
C[N+](C)(CCO)CCCNC(=O)[C@H](O)[C@@H](O)[C@H](O)[C@H](O)CO.[Cl-] [Quaternium 22]	98.9	2	–	–	–
vitamin E	–	–	–	–	significantly stimulates the diffusion, the release and the storage
Stearamidopropyl cetearyl dimonium tosylate and PG	93.2	13.1	–	–	–
